One series relates to Phytophthora infestans. The series is classed as in vivo. Conditions: tomato young plants, protective spray, rate of application 100 g/ha, evaluated 3 days after inoculation; 0% = as control, 100% = no disease.

In US6465499B1 (priority 1996, dated 2002) one finds melting point and Efficacy in % data, which are given here for five compounds.

As usually defined, the melting point is the temperature, or range, at which the solid turns liquid.

As for `Cc1noc(C)c1S(=O)(=O)n1c(=O)sc2c(C(F)(F)F)cc(C(F)(F)F)cc21` [Example 7], the melting point was 152 to 156 °C. Moreover, the Efficacy in % with Phytophthora infestans is 93%.

Turning to `Cc1noc(C)c1S(=O)(=O)n1c(=O)sc2c(C(F)(F)F)cc([N+](=O)[O-])cc21` [Example 6], the melting point is 210 to 213 °C. The compound also came in with an Efficacy in % in the series with Phytophthora infestans of 93%.

Take `Cc1noc(C)c1S(=O)(=O)n1c(=O)sc2c([N+](=O)[O-])cc(C(F)(F)F)cc21` [Example 5]: the melting point lay in the range of 129 to 133 °C. In the series on Phytophthora infestans, this compound returned an Efficacy in % of 100%.

With `Cc1noc(C)c1S(=O)(=O)n1c(=O)oc2c(Cl)cc(Cl)cc21` [Example 3], the melting point was 164 to 166 °C. Also, the Efficacy in % in the series with Phytophthora infestans is listed as 93%.

Compound `Cc1noc(C)c1S(=O)(=O)n1c(=O)oc2ccc(Cl)cc21` [Example 4] came in with a melting point of 183 to 187 °C. Moreover, in the series on Phytophthora infestans, the Efficacy in % is listed as 86%.
